Measurements from ChEMBL document CHEMBL3286303, “Synthesis and in vitro antiproliferative evaluation of novel N-alkylated 6-isobutyl- and propyl pyrimidine derivatives” (Bioorg Med Chem Lett, 2014).

What was measured:
[1] = Antiproliferative activity against human MIAPaCa2 cells after 72 hrs by MTT assay; format: functional, cell-based; details: MIA PaCa-2, 72 h
[2] = tested on: MCR; assay: Antiproliferative activity against human MCR cells after 72 hrs by MTT assay
[3] = tested on: HeLa; assay: Antiproliferative activity against human HeLa cells after 72 hrs by MTT assay; format: functional, cell-based
[4] = tested on: MCF7; assay: Antiproliferative activity against human MCF7 cells after 72 hrs by MTT assay; format: functional, cell-based; details: MCF7, 72 h
[5] = tested on: SW-620; assay: Antiproliferative activity against human SW620 cells after 72 hrs by MTT assay; format: functional, cell-based; details: SW-620, 72 h
[6] = tested on: HepG2; assay: Antiproliferative activity against human HepG2 cells after 72 hrs by MTT assay; format: functional, cell-based; details: HepG2, 72 h
[7] = tested on: WI-38; assay: Antiproliferative activity against human WI38 cells after 72 hrs by MTT assay; format: cell-based; details: Homo sapiens, WI-38, 72 h
[8] = tested on: K562; assay: Antiproliferative activity against apoptosis-resistant, Philadelphia chromosome-positive human K562 cells after 72 hrs by PrestoBlue colorimetric assay; format: functional, cell-based; details: K562, 72 h
[9] = tested on: BJ; assay: Antiproliferative activity against human BJ cells after 72 hrs by PrestoBlue colorimetric assay; format: cell-based
[10] = tested on: MCR; assay: Antiproliferative activity against human MCR cells after 72 hrs by MTT assay; format: cell-based; details: MCR

SMILES	IC50 [3]	IC50 [4]	IC50 [5]	IC50 [6]	IC50 [8]	IC50 [1]	IC50 [2]	IC50 [7]	IC50 [9]	IC50 [10]
C[Si](C)(C)CCOCn1c(CC(O)(CO)CO)cc(=O)[nH]c1=O	> 100 µM	> 100 µM	> 100 µM	> 100 µM	–	> 100 µM	> 100 µM	–	–	–
C[Si](C)(C)CCOCn1c(CC(O)CO)cc(=O)[nH]c1=O (stereo unspecified)	> 100 µM	> 100 µM	> 100 µM	> 100 µM	–	> 100 µM	> 100 µM	–	–	–
COCn1c(CC(COCc2ccccc2)COCc2ccccc2)cc(=O)[nH]c1=O	> 100 µM	> 100 µM	> 100 µM	> 100 µM	–	> 100 µM	> 100 µM	–	–	–
COCn1c(CC(O)(CO)CO)cc(=O)[nH]c1=O	> 100 µM	> 100 µM	> 100 µM	> 100 µM	–	> 100 µM	> 100 µM	–	–	–
COc1nc(CC(O)(COCc2ccccc2)COCc2ccccc2)c(C)c(OC)n1	–	–	–	–	–	6.1 µM	–	–	–	–
COCn1c(CC(O)COCc2ccccc2)c(C)c(=O)[nH]c1=O (stereo unspecified)	> 100 µM	> 100 µM	> 100 µM	> 100 µM	–	> 100 µM	> 100 µM	–	–	–
O=c1cc(CC(COCc2ccccc2)COCc2ccccc2)[nH]c(=O)[nH]1	> 100 µM	> 100 µM	> 100 µM	> 100 µM	–	> 100 µM	> 100 µM	–	–	–
C[Si](C)(C)CCOCn1c(CC(O)(COCc2ccccc2)COCc2ccccc2)cc(=O)[nH]c1=O	> 100 µM	> 100 µM	> 100 µM	> 100 µM	–	> 100 µM	> 100 µM	–	–	–
Cc1c(CC(O)COCc2ccccc2)[nH]c(=O)[nH]c1=O (stereo unspecified)	> 100 µM	> 100 µM	> 100 µM	> 100 µM	–	> 100 µM	> 100 µM	–	–	–
COc1cc(CC(O)(COCc2ccccc2)COCc2ccccc2)nc(OC)n1	> 100 µM	> 100 µM	> 100 µM	> 100 µM	–	> 100 µM	> 100 µM	–	–	–

Now from value to compound, other results behind:

IC50 [3]	IC50 [4]	IC50 [5]	IC50 [6]	IC50 [8]	SMILES	IC50 [1]	IC50 [2]	IC50 [7]	IC50 [9]	IC50 [10]
> 100 µM	> 100 µM	> 100 µM	> 100 µM	–	O=c1cc(CC(O)COCc2ccccc2)[nH]c(=O)[nH]1 (stereo unspecified)	> 100 µM	> 100 µM	–	–	–
> 100 µM	> 100 µM	> 100 µM	> 100 µM	–	Cc1c(CC(O)CO)n(COCC[Si](C)(C)C)c(=O)[nH]c1=O (stereo unspecified)	> 100 µM	> 100 µM	–	–	–
> 100 µM	> 100 µM	> 100 µM	> 100 µM	–	C[Si](C)(C)CCOCn1c(CC(O)COCc2ccccc2)cc(=O)[nH]c1=O (stereo unspecified)	> 100 µM	> 100 µM	–	–	–
> 100 µM	> 100 µM	> 100 µM	> 100 µM	–	O=c1cc(CC(O)(COCc2ccccc2)COCc2ccccc2)[nH]c(=O)[nH]1	> 100 µM	> 100 µM	–	–	–
17 µM	21.6 µM	25.6 µM	–	–	COCn1c(=O)[nH]c(CC(COCc2ccccc2)COCc2ccccc2)c(C)c1=O	27.3 µM	–	19.4 µM	–	–
29.7 µM	72.6 µM	72.1 µM	–	–	COCn1c(CC(COCc2ccccc2)COCc2ccccc2)c(C)c(=O)[nH]c1=O	55.9 µM	–	30.8 µM	–	–
–	–	–	–	2.4 µM	Cc1cn(-c2cc(NC(=O)c3ccc(C)c(Nc4nccc(-c5cccnc5)n4)c3)cc(C(F)(F)F)c2)cn1 [NILOTINIB]	–	–	–	12.8 µM	–
> 100 µM	> 100 µM	> 100 µM	> 100 µM	–	COCn1c(CC(O)CO)c(C)c(=O)[nH]c1=O (stereo unspecified)	> 100 µM	> 100 µM	–	–	–
> 100 µM	> 100 µM	> 100 µM	> 100 µM	–	COc1cc(CC(O)COCc2ccccc2)nc(OC)n1 (stereo unspecified)	> 100 µM	> 100 µM	–	–	–
> 100 µM	> 100 µM	> 100 µM	> 100 µM	–	COCn1c(CC(O)(COCc2ccccc2)COCc2ccccc2)cc(=O)[nH]c1=O	> 100 µM	> 100 µM	–	–	–
> 100 µM	> 100 µM	> 100 µM	> 100 µM	–	COc1nc(CC(O)COCc2ccccc2)c(C)c(OC)n1 (stereo unspecified)	> 100 µM	–	–	–	> 100 µM
3.5 µM	0.3 µM	> 100 µM	0.3 µM	–	COc1cc(CC(COCc2ccccc2)COCc2ccccc2)nc(OC)n1	–	18.5 µM	–	–	–
> 100 µM	> 100 µM	> 100 µM	> 100 µM	–	Cc1c(CC(O)COCc2ccccc2)n(COCC[Si](C)(C)C)c(=O)[nH]c1=O (stereo unspecified)	> 100 µM	> 100 µM	–	–	–
